Test results taken from US11453697B1, “Cyclic di-nucleotide compounds as sting agonists” (Merck Sharp & Dohme Corp., priority 2015, dated 2022).
Where two headings read alike, the source gives them in different places.

What was measured:
[1] = molecular target: full-length HAQ STING (Homo sapiens (Human), UniProt Q86WV6, G230A/H232R/R293Q/R71H); assay: 3H-cGAMP filtration binding assay (HAQ STING); conditions: competition with tritiated cGAMP, HAQ STING membrane
Text: The ability of compounds to bind STING is quantified by the ability to compete with tritiated cGAMP ligand for human STING receptor membrane using a radioactive filter-binding assay. The binding assay employs STING receptor obtained from Hi-Five cell membranes overexpressing full-length HAQ STING prepared in-house and tritiated cGAMP ligand also purified in-house.
The ability of compounds to bind STING is quantified by their ability to compete with tritiated cGAMP ligand for human STING receptor membrane using a radioactive filter-binding assay.
The basic HAQ STING filtration assay protocol is as follows:
Compound and membrane then preincubated for 60 min at RT to allow compound binding to equilibrate. Following equilibration, 8 nM of [^3H] c-GAMP ligand was prepared by diluting into assay buffer, and 50 uL of this working stock was then manually added to each well of the assay plate. […] The filter plates were then dried at 55° C. for 30 min using a pressurized VWR oven before 30 uL of Ultima GoldF scintillate was added to each well. Tritium levels for each reaction well were then measured using a PerkinElmer TopCount plate reader.
After normalization to controls, the percent activity for each compound concentration was calculated by measuring the amount of remaining radioactivity. The plot of percent activity versus the log of compound concentration was fit with a 4-parameter dose response equation to calculate EC50 values.

[2] = system: IFN-β secretion in THP1 cells; assay: IFN-β secretion in THP1 cell culture (5 h); assay type: cell-based, human
How it was run: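 THP1 cells incubated with compound for 5 h at 37 °C, 5% CO2, and secreted IFN-β in supernatant quantified by AlphaLISA. Percent effect normalised to 30 uM cGAMP positive control and 0.3% DMSO. EC50 from 4-parameter fit.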

[3] = read-out: EC50 (nM), 3H-cGAMP filtration binding assay for HAQ STING
[4] = IFN-β secretion in THP1 cell culture, 5 h, compound at 30 μM, percent activation relative to 2′3′-cGAMP
[5] = EC50 (nM), 3H-cGAMP filtration binding assay for HAQ STING

full-length HAQ STING, sequence (Q86WV6 other isoform, or with tags, fused parts or gaps, stated change not applied): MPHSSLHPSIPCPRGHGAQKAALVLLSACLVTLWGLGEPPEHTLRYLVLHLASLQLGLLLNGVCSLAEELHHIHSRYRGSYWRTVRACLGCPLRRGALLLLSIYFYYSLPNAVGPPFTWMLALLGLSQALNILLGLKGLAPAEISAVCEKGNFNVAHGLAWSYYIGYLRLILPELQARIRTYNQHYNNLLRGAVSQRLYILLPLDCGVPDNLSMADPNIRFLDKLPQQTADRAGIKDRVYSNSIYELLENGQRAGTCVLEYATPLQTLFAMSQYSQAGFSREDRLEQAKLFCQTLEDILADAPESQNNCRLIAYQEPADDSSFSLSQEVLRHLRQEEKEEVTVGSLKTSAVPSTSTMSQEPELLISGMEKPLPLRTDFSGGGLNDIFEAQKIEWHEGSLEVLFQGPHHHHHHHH

SMILES | EC50 [1, 3] [nM] | % Effect at 30 μM relative to 2′3′-cGAMP [2, 4] [%] | EC50 [1, 5] [nM] | % Effect at 30 μM relative to 2′3′-cGAMP [2] [%]
Nc1nc2c(ncn2[C@@H]2O[C@@H]3COP(=O)(S)O[C@H]4[C@@H](O)[C@H](n5ccc6c(N)ncnc65)O[C@@H]4COP(=O)(S)O[C@@H]2C3)c(=O)[nH]1 (single isomer, unassigned) [Example 77] | 161 | 39 | – | –
Nc1nc2c(ncn2[C@@H]2O[C@@H]3COP(O)(=S)O[C@H]4C[C@H](n5cnc6c(=O)[nH]cnc65)O[C@@H]4COP(O)(=S)O[C@@H]2[C@@H]3F)c(=O)[nH]1 (single isomer, unassigned) [Example 305] | – | – | 326 | 50
Nc1nc2c(ncn2[C@@H]2O[C@@H]3COP(O)(=S)O[C@H]4C[C@H](n5cnc6c(=O)[nH]cnc65)O[C@@H]4COP(O)(=S)O[C@@H]2[C@@H]3F)c(=O)[nH]1 (single isomer, unassigned) [Example 306] | – | – | 3.6 | 153
Nc1nc2c(ncn2[C@@H]2O[C@@H]3CO[P@@](=O)(S)O[C@H]4C[C@H](n5cnc6c(=O)[nH]cnc65)O[C@@H]4CO[P@@](=O)(S)O[C@@H]2[C@@H]3F)c(=O)[nH]1 (single isomer, unassigned) [Example 307] | – | – | < 1 | 174
Nc1nc2c(ncn2[C@@H]2O[C@@H]3COP(=O)(S)O[C@H]4[C@H](F)[C@H](n5cnc6c(=O)[nH]cnc65)O[C@@H]4COP(=O)(S)O[C@@H]2C3)c(=O)[nH]1 (single isomer, unassigned) [Example 317] | < 1 | 107 | – | –
Nc1nc2c(ncn2[C@@H]2O[C@@H]3COP(=O)(S)O[C@H]4[C@H](F)[C@H](n5cnc6c(=O)[nH]cnc65)O[C@@H]4COP(=O)(S)O[C@@H]2C3)c(=O)[nH]1 (single isomer, unassigned) [Example 318] | 6.2 | 150 | – | –
Nc1nc2c(ncn2[C@@H]2S[C@@H]3COP(=O)(O)OC4C(O)[C@H](n5cnc6c(N)ncnc65)O[C@@H]4COP(=O)(O)OC2C3O)c(=O)[nH]1 (stereo in doubt) [Example 11, (5R,7R,8R,12aR,14R,15R,15aS,16S)-7-(2-amino-6-oxo-1,6-dihydro-9H-purin-9-yl)-14-(6-amino-9H-purin-9-yl)-15,16-dihydroxyoctahydro-12H-5,8-methanofuro[3,2-l][1,3,9,11,6,2,10] tetraoxathiadiphosphacyclotetradecine-2,10-diolate 2,10-dioxide] | 1.2 | 169 | – | –
C#C[C@@]12COP(=O)(O)OC3C(O)[C@@H](COP(=O)(O)OC1C(O)[C@H](n1cnc4c(N)ncnc41)O2)O[C@H]3n1cnc2c(=O)[nH]c(N)nc21 (stereo in doubt) [Example 12, (5R,7R,8R,12aR,14R,15R,15aS,16R)-7-(2-amino-6-oxo-1,6-dihydro-9H-purin-9-yl)-14-(6-amino-9H-purin-9-yl)-12a-ethynyl-15,16-dihydroxyoctahydro-12H-5,8-methanofuro[3,2-l][1,3,6,9,11,2,10] pentaoxadiphosphacyclotetradecine-2,10-diolate 2,10-dioxide] | < 1 | 89 | – | –
Nc1nc2c(ncn2[C@@H]2O[C@@H]3COP(=O)(O)OC4C(O)[C@H](c5cnn6c(=O)[nH]cnc56)O[C@@H]4COP(=O)(O)OC2C3O)c(=O)[nH]1 (stereo in doubt) [Example 321, 8-[(5R,7R,8R,12aR,14S,15S,15aS,16R)-7-(2-amino-6-oxo-1,6-dihydro-9H-purin-9-yl)-2,10,15,16-tetrahydroxy-2,10-dioxidooctahydro-12H-5,8-methanofuro[3,2-l][1,3,6,9,11,2,10]pentaoxadiphosphacyclotetradecin-14-yl]pyrazolo[1,5-a][1,3,5]triazin-4(3H)-one] | 112 | 36 | – | –
Nc1nc2c(ncn2[C@@H]2O[C@@H]3COP(=O)(O)O[C@H]4[C@H](Cl)[C@H](n5cnc6c(N)ncnc65)O[C@@H]4COP(=O)(O)O[C@@H]2[C@@H]3O)c(=O)[nH]1 [Example 15, 2-amino-9-[(5R,7R,8R,12aR,14R,15S,15aR,16R)-14-(6-amino-9H-purin-9-yl)-15-chloro-2,10,16-trihydroxy-2,10-dioxidooctahydro-12H-5,8-methanofuro[3,2-l][1,3,6,9,11,2,10]pentaoxadiphosphacyclotetradecin-7-yl]-1,9-dihydro-6H-purin-6-one] | 378 | 39 | – | –
C[C@H]1OP(=O)(O)O[C@@H]2C[C@@H](COP(=O)(O)O[C@H]3[C@@H](O)[C@H](n4cnc5c(N)ncnc54)O[C@@H]31)O[C@H]2n1cnc2c(=O)[nH]c(N)nc21 [Example 16, 2-amino-9-[(5S,7R,8R,12R,12aR,14R,15R,15aS)-14-(6-amino-9H-purin-9-yl)-2,10,15-trihydroxy-12-methyl-2,10-dioxidooctahydro-12H-5,8-methanofuro[3,2-l][1,3,6,9,11,2,10]pentaoxadiphosphacyclotetradecin-7-yl]-1,9-dihydro-6H-purin-6-one] | 12.4 | 57 | – | –
Nc1nc2c(ncn2[C@@H]2O[C@@]34COC3[C@@H]2OP(=O)(O)OC[C@H]2O[C@@H](n3cnc5c(N)ncnc53)[C@@H](O)C2OP(=O)(O)OC4)c(=O)[nH]1 (stereo partly drawn) [Example 17, 2-amino-9-[(2aR,5S,6aS,7R,8R,9aR,12S,14R,14aS,15R)-8-(6-amino-9H-purin-9-yl)-5,7,12-trihydroxy-5,12-dioxidohexahydro-6aH-2a,14-(epoxymethano)furo[3,2-d]oxeto[2,3-k][1,3,7,9,2,8]tetraoxadiphosphacyclotridecin-15(2H,3H)-yl]-1,9-dihydro-6H-purin-6-one] | 121 | 81 | – | –
C[C@@H]1OP(=O)(O)O[C@@H]2C[C@@H](COP(=O)(O)O[C@H]3[C@@H](O)[C@H](n4cnc5c(N)ncnc54)O[C@H]31)O[C@H]2n1cnc2c(=O)[nH]c(N)nc21 [Example 18, 2-amino-9-[(5S,7R,8R,12S,12aS,14R,15R,15aS)-14-(6-amino-9H-purin-9-yl)-2,10,15-trihydroxy-12-methyl-2,10-dioxidooctahydro-12H-5,8-methanofuro[3,2-l][1,3,6,9,11,2,10]pentaoxadiphosphacyclotetradecin-7-yl]-1,9-dihydro-6H-purin-6-one] | 53.9 | 74 | – | –
Nc1nc2c(ccn2[C@@H]2O[C@@H]3COP(=O)(O)O[C@H]4[C@@H](O)[C@H](n5cnc6c(N)ncnc65)O[C@@H]4COP(=O)(O)O[C@@H]2[C@@H]3O)c(=O)[nH]1 [Example 30, 2-amino-7-[(5R,7R,8R,12aR,14R,15R,15aS,16R)-14-(6-amino-9H-purin-9-yl)-2,10,15,16-tetrahydroxy-2,10-dioxidooctahydro-12H-5,8-methanofuro[3,2-l][1,3,6,9,11,2,10]pentaoxadiphosphacyclotetradecin-7-yl]-3,7-dihydro-4H-pyrrolo[2,3-d] pyrimidin-4-one] | 91 | 131 | – | –
CNc1ncnc2c1ncn2[C@@H]1O[C@@H]2COP(=O)(O)O[C@@H]3[C@H](O)[C@@H](COP(=O)(O)O[C@H]2[C@H]1O)O[C@H]3n1cnc2c(=O)[nH]c(N)nc21 [Example 31, 2-amino-9-{(5R,7R,8R,12aR,14R,15R,15aS,16R)-2,10,15,16-tetrahydroxy-14-[6-(methylamino)-9H-purin-9-yl]-2,10-dioxidooctahydro-12H-5,8-methanofuro [3,2-l][1,3,6,9,11,2,10]pentaoxadiphosphacyclotetradecin-7-yl}-1,9-dihydro-6H-purin-6-one] | 94 | 100 | – | –
Nc1nc2c(ncn2[C@@H]2O[C@@H]3COP(=O)(O)O[C@H]4[C@@H](O)[C@H](n5cc(F)c6c(N)ncnc65)O[C@@H]4COP(=O)(O)O[C@@H]2[C@@H]3O)c(=O)[nH]1 [Example 33, 2-amino-9-[(5R,7R,8R,12aR,14R,15R,15aS,16R)-14-(4-amino-5-fluoro-7H-pyrrolo[2,3-d]pyrimidin-7-yl)-2,10,15,16-tetrahydroxy-2,10-dioxidooctahydro-12H-5,8-methanofuro[3,2-l][1,3,6,9,11,2,10]pentaoxadiphosphacyclotetradecin-7-yl]-1,9-dihydro-6H-purin-6-one] | 11.9 | 200 | – | –
Nc1nc2c(ncn2[C@@H]2O[C@@H]3COP(=O)(O)O[C@H]4[C@@H](O)[C@H](n5cnc6c(N)nc(F)nc65)O[C@@H]4COP(=O)(O)O[C@@H]2[C@@H]3O)c(=O)[nH]1 [Example 34, 2-amino-9-[(5R,7R,8R,12aR,14R,15R,15aS,16R)-14-(6-amino-2-fluoro-9H-purin-9-yl)-2,10,15,16-tetrahydroxy-2,10-dioxidooctahydro-12H-5,8-methanofuro[3,2-l][1,3,6,9,11,2,10]pentaoxadiphosphacyclotetradecin-7-yl]-1,9-dihydro-6H-purin-6-one] | 24.6 | 125 | – | –
